Article PMC3855387, “AMPK Activation through Mitochondrial Regulation Results in Increased Substrate Oxidation and Improved Metabolic Parameters in Models of Diabetes” (PLoS ONE, 2013)

Legend:
[1] = target: T1, respiratory complex I (mitochondrial complex I) (Mus musculus, UniProt P03888+Q91WD5+Q9DC70); assay: NADH oxidation (A340) in mouse liver mitochondrial lysate; succinate rescue of respiration in isolated mitochondria; assay type: biochemical
T1 construct: gene Ndufs2; native complex in mouse liver mitochondrial lysate

[2] = target: T1, respiratory complex I (mitochondrial complex I); assay: NADH oxidation (A340) in mouse liver mitochondrial lysate; assay type: biochemical

SMILES	IC50 [1]	IC50 [2]
COc1ccc(C(=O)C2CCN(C(=O)c3ccc(C(=O)NC4CCN(Cc5ccc(C#N)cc5)CC4)cn3)CC2)cc1 [R419, N-(1-(4-cyanobenzyl)piperidin-4-yl)-6-(4-(4-methoxybenzoyl)piperidine-1-carbonyl)nicotinamide]	82 nM	–
CN(C)C(=N)N=C(N)N [metformin]	–	27 mM
